Each structure is given as a SMILES string.

The conditions of series [1]: mouse, in vivo.
Experimental: The body weight, tumor size and general clinical status of the animals were recorded every 2-3 days. Perpendicular tumor diameters were measured using a vernier scale caliper and tumor volume was estimated using the formula for ellipsoid: (width^2×length)/2. Growth curves were statistically analyzed using repeated measures ANOVA. […] As required by institutional guidelines, the mice were sacrificed when tumor size reached 1.5 cm^3 or 7.5-10% of their body weight.
To evaluate this aspect of DC101/vinblastine combination therapy, the health status of the mice was monitored. Weight was plotted at regular intervals and considered a surrogate for evaluation of systemic well being, anorexia, or failure to thrive.
Series [2] relates to SK-N-MC neuroepithelioma or SK-N-AS neuroblastoma xenografts. Briefly: In vivo tumor growth assessment, subcutaneous xenografts. Also on record: species or system CB-17 SCID mice. The following applies: established ~0.75 cm^3 xenografts; DC101 800 μg i.p. every three days; low-dose vinblastine. The protocol:
In vivo tumor growth assessment: SK-N-MC, cells were harvested using 1% Trypsin EDTA (GibcoBRL, Gaithesburg, Md.), and single cell suspension of 2×10^6 cells in 0.2 ml of growth media was injected subcutaneously into the flanks of 4-6 week old CB-17 SCID mice (Charles River, St-Constant, Quebec). Approximately 3 weeks later, most tumors had grown to ˜0.75 cm^3, and mice were randomized into groups of 5 animals. Two independent experiments were performed, each totaling 20 animals in 4 groups. The treatment was as follows:
Group I (Control)—0.4 ml of PBS (DC101 vehicle) i.p. every three days and 0.15 ml injectable saline (vinblastine vehicle) i.p. every three days.
Group II—0.4 ml of 2 mg/ml DC101 antibody (800 μg/mouse) (24) every three days and 0.15 ml of injectable saline i.p. every three days
Group III—vinblastine sulfate 0.75 mg/m^2 i.p. bolus at the start of therapy, followed by 1 mg/m^2/day via subcutaneous Alzet osmotic pumps (Alza Corp, Palo Alto, Calif.) for 3 weeks, followed by maintenance therapy with 0.15 ml of 0.067 mg/ml vinblastine sulfate (1.5 mg/m^2) i.p. every three days, and 0.4 ml of PBS i.p. every three days
Group IV—combination of DC101 and vinblastine at doses identical to the single agent groups. […]

In series [3] the test system is SK-N-AS human neuroblastoma xenografts. Kind of series: Tumor perfusion by FITC-Dextran fluorescence. It is filed as in vivo, CB-17 SCID mice. To be noted: vinblastine 1 mg/m^2 i.p. and/or DC101 800 μg i.p. every three days, 10 days. The protocol: Relative tumor vascularity assessed by an FITC-Dextran perfusion assay: The method was designed to assess the relative functionality of the tumor vasculature. 2×10^6 SK-N-AS neuroblastoma cells were injected into the flanks of CB-17 SCID mice. Tumors were allowed to grow to approximately 0.75 cm^3 at which point tumor bearing mice were then treated with 1 mg/m^2 vinblastine i.p. every three days, 800 μg DC101 i.p. every three days, combination of the two agents or saline as a control. […] Fluorescence readings were obtained on a FL600 Fluorescence Plate Reader (Bio-tek Instruments Inc., Winooski, Vt., USA), from a standard curve created by serial dilution of the FITC-dextran used for injection. The ratio of tumor fluorescence:plasma fluorescence was assumed to be reflective of the degree of tumor perfusion.
Tumor perfusion by assessment of intravascular fluorescence: To further explore the possibility that tumor regression induced with treatment using DC101 and vinblastine was indeed due to the vascular injury, rather than a direct anti-tumor cell effect, we assessed tumor perfusion directly by using a FITC-Dextran fluorescence method. […]

For series [4] the following is noted: mouse, in vivo; cited from earlier work.
The test system of series [5] is bFGF induced vascularization. Kind of series: In vivo Matrigel plug angiogenesis assay. Set-up: species or system Balb/cJ mice. The following applies: DC101 800 μg i.p. and/or vinblastine 1 mg/m^2 i.p. on day 4 and 7, sacrifice day 10.
Experimental: In vivo angiogenesis assessment by the Matrigel plug assay (5,25): Matrigel (Collaborative Biomedical Products, Bedford, Mass.) stored at −20° C., was thawed at 4° C. overnight and mixed with 500 ng/ml bFGF. 0.5 ml of this mixture was then injected subcutaneously into the shaved flanks of twenty 6-8 week old female Balb/cJ mice (Jackson Labs, Bar Harbor, Me.). Five mice, used as negative controls, were injected with Matrigel alone. Three days later, treatment mice were randomized into four groups as follows: • Group I—saline i.p., • Group II—800 μg DC101 i.p. • Group III—1 mg/m^2 vinblastine i.p. • Group IV—combination therapy.
All 25 mice were treated on day 4 and 7 and sacrificed on day 10. Blood samples were collected into heparinized tubes by cardiac puncture, centrifuged immediately following their collection, plasma separated and protected from light at 4° C. […] The following day, the plugs were homogenized, centrifuged at 5000 rpm for 10 minutes and supernatant saved in the dark for analysis of fluorescence. Fluorescence readings were obtained on FL600 Fluorescence Plate Reader using a standard curve created by serial dilution of FITC-dextran used for injection. Angiogenic response was expressed as a ratio of Matrigel plug fluorescence:plasma fluorescence.
To address these questions, we repeated the same fluorescence measurement using an in vivo Matrigel plug angiogenesis assay. […]
For another series, the system named is HUVEC. Kind of series: In vitro drug sensitivity, 3H-thymidine incorporation. It is filed as cell-based, human. The following applies: 24 hours. The source says: (§1) Cells and culture conditions: Neuroblastoma cell lines SK-N-MC, SK-N-AS were obtained from American Type Culture Collection (ATCC) and expanded as a monolayer culture by serial passage on tissue culture plates (Nunc, Denmark) in DMEM, 5% fetal bovine serum (Gibco, Grand Island, N.Y., USA). Human umbilical vein endothelial cells (HUVEC) (Clonetics, San Diego, Calif.) were expanded on 1% gelatin-coated tissue culture plates in MCDB131 culture medium (JRH Biosciences, Lenexa, Kans., USA) supplemented with 5 ng/ml bFGF (R&D, Minneapolis, Minn.), 10 units/ml heparin (Wyeth-Ayerst Canada), 10 ng/ml EGF (UBI, Lake Placid, N.Y.) and 10% fetal bovine serum.
(§2) In vitro determination of drug sensitivity: Three thousand cells in 200 μl growth media per well were plated in 96-well flat bottom tissue culture plates (Nunc, Denmark) and incubated at 37° C., 5% CO2 for 24 hours prior to initiation of treatment. […] The cells were then pulsed for 6 hrs with 2 μCi/well of methyl-^3H-thymidine (Amersham Life Science, Buckinghamshire, England). The plates were frozen, thawed and the DNA harvested onto a filtermat using a Titertek Cell Harvester. Incorporated radioactivity was measured on Wallac 1205 BetaPlate Scintillation Counter (Wallac Oy, Finland) and proliferation was expressed as a percentage of ^3H-thymidine in treated cells vs. that in controls.
(§3) All three cell lines were grown in DMEM with […], but the HUVEC were grown on gelatinized plates and in the presence of additional growth factors (bFGF and EGF).
(Incorporation of labelled thymidine or its analogues reports DNA synthesis.)

Another series has as its system SK-N-AS cells. The series is described as above. The class given is cell-based, human. To be noted: 100-400 ng/ml, 24 hours.
Text: as §1, §2, §3

In series [6] the test system is neuroblastoma xenograft tumors. Kind of series: Histopathologic analysis of tumors (H/E and TUNEL). The following applies: excised tumors; combination group at 7.5 weeks of treatment. It is filed as in vivo, CB-17 SCID mice. The source says: Histology: All tumors were excised, fixed in 10% (v/v) formalin and processed for immunohistochemical analysis. To obtain adequate tissue for the combination treatment group, two mice were sacrificed at 7.5 weeks of treatment. Paraffin blocks were cut to 5 μm sections and stained with haematoxylin/eosin for morphology evaluation and with Apoptosis Detection System (Promega, Madison, Wis.) for assessment of programmed cell death.
Histopathologic analysis: To further elucidate the mechanisms involved in the tumor regression following treatment with vinblastine, DC101, or the combined therapy, tissue histopathology assessment was undertaken. Cancer cells with high nuclear to cytoplasmic ratio form cuffs around central vessels, and apoptotic cells characterized by pyknotic nuclei and cytoplasmic blebbing, are only evident as a thin rim at the periphery of the cuffs. The nuclei of these cells stain strongly for terminal deoxynucleotidyl transferase (TUNEL) reactivity, as expected for cells undergoing apoptosis. […] There is a close similarity of the appearance of H/E and TUNEL stain. […] Rather than a typical single layer of flattened endothelial cells surrounding the vascular lumen in untreated group, we observed edema, and detachment from surrounding basement membrane and leading to complete vascular wall disintegration and tumor cell death.

The subject of another series is SK-N-MC cells. Kind of series: In vitro drug sensitivity, 3H-thymidine incorporation. To be noted: 100-400 ng/ml, 24 hours. It is filed as cell-based, human.
Text: as §1
In vitro determination of drug sensitivity: Three thousand cells in 200 μl growth media per well were plated in 96-well flat bottom tissue culture plates (Nunc, Denmark) and incubated at 37° C., 5% CO2 for 24 hours prior to initiation of treatment. The cells were then washed with PBS and treated with 1-500 ng/ml vinblastine sulphate (Calbiochem, La Jolla, Calif.) for 24 hours, in groups of eight wells per dose. […] Incorporated radioactivity was measured on Wallac 1205 BetaPlate Scintillation Counter (Wallac Oy, Finland) and proliferation was expressed as a percentage of ^3H-thymidine in treated cells vs. that in controls. […]

As for `CC[C@]1(O)C[C@@H]2CN(CCc3c([nH]c4ccccc34)[C@@](C(=O)OC)(c3cc4c(cc3OC)N(C)[C@H]3[C@@](O)(C(=O)OC)[C@H](OC(C)=O)[C@]5(CC)C=CCN6CC[C@]43[C@@H]65)C2)C1` [vinblastine, vinblastine sulphate], the “body weight / toxicity profile” value in series [1] is listed as “some weight gain retardation, but the differences never became significantly different from controls”. For the same compound, the “effect on tumor growth” value in series [2] was “significant, albeit not sustained, regression of tumor growth”. The “decrease in tumor perfusion (tumor:plasma fluorescence)” value in series [3] is recorded as 41%. Further, the “MTD in mice relative to MTD in humans” value in series [4] is listed as 4-5 times. The “bFGF induced vascularization of Matrigel plug (plug:plasma fluorescence)” value in series [5] is listed as 62.5 % of the positive control group. Moreover, the “inhibition of proliferation (3H-thymidine incorporation)” value is “retained almost the same degree of inhibitory activity” in the series on HUVEC (0.78 ng/ml); “strongly inhibited, especially HUVEC” with HUVEC (100-400 ng/ml); “strongly inhibited” in the series on SK-N-AS cells; “strongly inhibited” with SK-N-MC cells. The “tumor histology (H/E, TUNEL apoptosis)” value in series [6] is listed as “increase in the width of the apoptotic rims”.
